Source: patent publication US9987272B2, “Compound useful for the treatement of degenerative and inflammatory diseases” (GALAPAGOS NV, priority 2011, dated 2018)
Where “and” joins values, the source holds several entries; their conditions need not be identical. Identical values can stand only once.

Key:
[1] = target: T1, Recombinant human JAK1 (catalytic domain, amino acids 866-1154) (Homo sapiens, UniProt P23458); experiment: JAK1 Ulight-JAK1 peptide assay; type: biochemical; settings: Ulight-JAK1(tyr1023) peptide, 7 μM ATP; individual determinations; read-out: IC50 against JAK1
T1 construct: catalytic domain, amino acids 866-1154; purchased Invitrogen PV4774
T1 sequence (P23458 866-1154): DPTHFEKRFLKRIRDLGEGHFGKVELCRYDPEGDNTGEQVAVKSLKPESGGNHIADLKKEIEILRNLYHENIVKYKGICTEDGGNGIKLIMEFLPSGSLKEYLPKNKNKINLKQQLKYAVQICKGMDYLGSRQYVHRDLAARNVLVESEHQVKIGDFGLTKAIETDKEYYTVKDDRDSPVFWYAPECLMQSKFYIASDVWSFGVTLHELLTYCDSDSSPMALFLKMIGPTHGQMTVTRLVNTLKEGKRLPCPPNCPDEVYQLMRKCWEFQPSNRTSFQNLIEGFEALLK
Procedure: Recombinant human JAK1 (catalytic domain, amino acids 866-1154; catalog number PV4774) was purchased from Invitrogen. 1 ng of JAK1 was incubated with 20 nM Ulight-JAK1(tyr1023) peptide (Perkin Elmer catalog number TRF0121) in kinase reaction buffer (25 mM MOPS pH6.8, 0.01% Brij-35, 5 mM MgCl2, 2 mM DTT, 7 μM ATP) with or without 4 μL containing test compound or vehicle (DMSO, 1% final concentration), in a total volume of 20 μL, in a white 384 Opti plate (Perkin Elmer, catalog number 6007290). […] Readout is performed using the Envision with excitation at 320 nm and measuring emission at 615 nm (Perkin Elmer). Kinase activity was calculated by subtracting relative fluorescence units (RFU) obtained in the presence of a positive control inhibitor (10 μM staurosporine) from RFU obtained in the presence of vehicle. The ability of a test compound to inhibit this activity was determined as: Percentage inhibition=((RFU determined for sample with test compound present−RFU determined for sample with positive control inhibitor) divided by (RFU determined in the presence of vehicle−RFU determined for sample with positive control inhibitor))*100.
A dose dilution series was prepared for the compound enabling the testing of dose-response effects in the JAK1 assay and the calculation of the IC50 for the compound. […] The data are expressed as the average IC50 from the assays±standard error of the mean.

TYK2 = target: T2, TYK2 (Homo sapiens, UniProt P29597); experiment: TYK2 Ki determination assay; type: biochemical; settings: Lineweaver-Burk plot, polyGT substrate, varying ATP
T2 construct: catalytic domain (amino acids 871-1187; catalog number 08-147); purchased Carna Biosciences 08-147
T2 sequence (P29597 871-1187): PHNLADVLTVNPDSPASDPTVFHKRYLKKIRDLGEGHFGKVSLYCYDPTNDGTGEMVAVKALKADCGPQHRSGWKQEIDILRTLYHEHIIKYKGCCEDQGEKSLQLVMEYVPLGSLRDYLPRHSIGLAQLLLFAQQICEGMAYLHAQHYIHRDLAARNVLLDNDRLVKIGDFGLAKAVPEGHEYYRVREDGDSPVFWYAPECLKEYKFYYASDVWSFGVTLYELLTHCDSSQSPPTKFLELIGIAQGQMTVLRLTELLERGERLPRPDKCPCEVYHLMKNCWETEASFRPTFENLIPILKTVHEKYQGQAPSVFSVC
Procedure: For the determination of Ki, different amounts of compound are mixed with the enzyme and the enzymatic reaction is followed as a function of ATP concentration. The Ki is determined by means of double reciprocal plotting of Km vs compound concentration (Lineweaver-Burk plot). TYK2 (Carna Biosciences, 08-147) was used at a final concentration of 160 ng/ml. The substrate was Poly(Glu,Tyr)sodium salt (4:1), MW 20 000-50 000 (Sigma, P0275) The reaction was performed in 25 mM Hepes pH 7.2, 50 mM NaCl, 0.5 mM EDTA, 1 mM DTT, 5 mM MnCl2, 10 mM MgCl2, 0.1% Brij-35 with varying concentrations of ATP and compound and stopped by addition of 150 mM phosphoric acid. Measurement of incorporated phosphate into the substrate polyGT was done by loading the samples on a filter plate (using a harvester, Perkin Elmer) and subsequent washing. Incorporated ^33P in polyGT is measured in a Topcount scintillation counter after addition of scintillation liquid to the filter plates (Perkin Elmer).

[2] = target: T3, Recombinant human JAK3 catalytic domain (Homo sapiens, UniProt P52333); experiment: JAK3 inhibition assay; type: biochemical; settings: polyGT substrate, 1 μM ATP, 33P-gamma-ATP; individual determinations; read-out: IC50 against JAK3
T3 construct: catalytic domain (amino acids 795-1124; catalog number 08-046); purchased Carna Biosciences 08-046
T3 sequence (P52333 795-1124): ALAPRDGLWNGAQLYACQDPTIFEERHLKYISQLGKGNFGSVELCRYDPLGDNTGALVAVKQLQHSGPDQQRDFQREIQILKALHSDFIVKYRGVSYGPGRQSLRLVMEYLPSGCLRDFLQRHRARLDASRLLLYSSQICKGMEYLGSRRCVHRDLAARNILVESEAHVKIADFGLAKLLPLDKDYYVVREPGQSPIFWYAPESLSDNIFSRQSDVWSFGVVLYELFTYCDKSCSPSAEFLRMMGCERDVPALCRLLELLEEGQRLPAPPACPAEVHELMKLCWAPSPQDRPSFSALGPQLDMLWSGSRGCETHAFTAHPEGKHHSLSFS
Procedure: Recombinant human JAK3 catalytic domain (amino acids 795-1124; catalog number 08-046) was purchased from Carna Biosciences. 0.5 ng JAK3 protein was incubated with 2.5 μg polyGT substrate (Sigma catalog number P0275) in kinase reaction buffer (25 mM Tris pH 7.5, 0.5 mM EGTA, 10 mM MgCl2, 2.5 mM DTT, 0.5 mM Na3VO4, 5 mM b-glycerolphosphate, 0.01% Triton X-100, 1 μM non-radioactive ATP, 0.25 μCi 33P-gamma-ATP (Perkin Elmer, catalog number NEG602K001MC) final concentrations) with or without 5 μL containing test compound or vehicle (DMSO, 1% final concentration), in a total volume of 25 μL, in a polypropylene 96-well plate (Greiner, V-bottom). After 45 min at 30° C., reactions were stopped by adding 25 μL/well of 150 mM phosphoric acid. […] 40 μL/well of Microscint-20 was added, the top of the plates was sealed and readout was performed using the Topcount (Perkin Elmer). Kinase activity was calculated by subtracting counts per min (cpm) obtained in the presence of a positive control inhibitor (10 μM staurosporine) from cpm obtained in the presence of vehicle. The ability of a test compound to inhibit this activity was determined as: Percentage inhibition=((cpm determined for sample with test compound present−cpm determined for sample with positive control inhibitor) divided by (cpm determined in the presence of vehicle−cpm determined for sample with positive control inhibitor))*100. […]

[3] = target: T4, Recombinant human JAK2 (catalytic domain) (Homo sapiens, UniProt O60674); experiment: JAK2 Ulight-JAK1 peptide assay; type: biochemical; settings: Ulight-JAK1(tyr1023) peptide, 7.5 μM ATP; individual determinations; read-out: IC50 against JAK2
T4 construct: Recombinant human JAK2 catalytic domain (amino acids 808-1132; catalog number PV4210); purchased Invitrogen PV4210
T4 sequence (O60674 808-1132): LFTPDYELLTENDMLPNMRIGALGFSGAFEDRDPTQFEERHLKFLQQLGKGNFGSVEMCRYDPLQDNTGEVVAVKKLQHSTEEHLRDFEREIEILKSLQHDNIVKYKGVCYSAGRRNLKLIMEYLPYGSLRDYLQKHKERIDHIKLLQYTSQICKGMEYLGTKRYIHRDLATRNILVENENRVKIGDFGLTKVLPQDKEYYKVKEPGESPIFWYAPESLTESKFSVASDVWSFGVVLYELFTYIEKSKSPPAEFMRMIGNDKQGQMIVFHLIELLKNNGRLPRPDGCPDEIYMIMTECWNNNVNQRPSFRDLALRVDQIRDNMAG
Procedure: Recombinant human JAK2 (catalytic domain, amino acids 866-1154; catalog number PV4210) was purchased from Invitrogen. 0.0125 mU of JAK2 was incubated with 25 nM Ulight-JAK1(tyr1023) peptide (Perkin Elmer catalog number TRF0121) in kinase reaction buffer (25 mM HEPES pH7.0, 0.01% Triton X-100, 7.5 mM MgCl2, 2 mM DTT, 7.5 μM ATP) with or without 4 μL containing test compound or vehicle (DMSO, 1% final concentration), in a total volume of 20 μL, in a white 384 Opti plate (Perkin Elmer, catalog number 6007290). […] Readout is performed using the Envision with excitation at 320 nm and measuring emission at 615 nm (Perkin Elmer). Kinase activity was calculated by subtracting relative fluorescence units (RFU) obtained in the presence of a positive control inhibitor (10 μM staurosporine) from RFU obtained in the presence of vehicle. The ability of a test compound to inhibit this activity was determined as: Percentage inhibition=((RFU determined for sample with test compound present−RFU determined for sample with positive control inhibitor) divided by (RFU determined in the presence of vehicle−RFU determined for sample with positive control inhibitor))*100. […]

JAK-STAT = JAK-STAT signalling assay; type: cell-based; settings: HeLa cells, pSTAT1(2)-luciferase reporter, human OSM 33 ng/mL; read-out: IC50 against JAK-STAT
Procedure: HeLa cells were maintained in Dulbecco's Modified Eagle's Medium (DMEM) containing 10% heat inactivated fetal calf serum, 100 U/mL penicillin and 100 μg/mL streptomycin. HeLa cells were used at 70% confluence for transfection. 20,000 cells in 87 μL cell culture medium were transiently transfected with 40 ng pSTAT1(2)-luciferase reporter (Panomics), 8 ng of LacZ reporter as internal control reporter and 52 ng of pBSK using 0.32 μL Jet-PEI (Polyplus) as transfection reagent per well in 96-well plate format. After overnight incubation at 37° C., 5% CO2, transfection medium was removed. 81 μL of DMEM+1.5% heat inactivated fetal calf serum was added. 9 μL compound at 10× concentration was added for 60 min and then 10 μL of human OSM (Peprotech) at 33 ng/mL final concentration. […]
40 μL of cell lysate was used to read β-galactosidase activity by adding 180 μL β-Gal solution (30 μl ONPG 4 mg/mL+150 μL β-Galactosidase buffer (0.06 M Na2HPO4, 0.04 M NaH2PO4, 1 mM MgCl2)) for 20 min. The reaction was stopped by addition of 50 μL Na2CO3 1 M. Absorbance was read at 405 nm.
Luciferase activity was measured using 40 μL cell lysate plus 40 μL of Steadylite® as described by the manufacturer (Perkin Elmer), on the Envision (Perkin Elmer). […]

[4] = target: T5, Recombinant human TYK2 catalytic domain (Homo sapiens, UniProt P29597); experiment: TYK2 inhibition assay; type: biochemical; settings: polyGT substrate, 0.1 μM ATP, 33P-gamma-ATP; individual determinations; read-out: IC50 against TYK2
T5 construct: catalytic domain (amino acids 871-1187; catalog number 08-147); purchased Carna Biosciences 08-147
T5 sequence (P29597 871-1187): T2 sequence (P29597 871-1187)
Procedure: Recombinant human TYK2 catalytic domain (amino acids 871-1187; catalog number 08-147) was purchased from Carna biosciences. 4 ng of TYK2 was incubated with 12.5 μg polyGT substrate (Sigma catalog number P0275) in kinase reaction buffer (25 mM Hepes pH 7.2, 50 mM NaCl, 0.5 mM EDTA, 1 mM DTT, 5 mM MnCl2, 10 mM MgCl2, 0.1% Brij-35, 0.1 μM non-radioactive ATP, 0.125 μCi ^33P-gamma-ATP (Perkin Elmer, catalog number NEG602K001MC) final concentrations) with or without 5 μL containing test compound or vehicle (DMSO, 1% final concentration), in a total volume of 25 μL, in a polypropylene 96-well plate (Greiner, V-bottom). After 90 min at 30° C., reactions were stopped by adding 25 μL/well of 150 mM phosphoric acid. […] 40 μL/well of Microscint-20 was added, the top of the plates was sealed and readout was performed using the Topcount (Perkin Elmer). Kinase activity was calculated by subtracting counts per min (cpm) obtained in the presence of a positive control inhibitor (10 μM staurosporine) from cpm obtained in the presence of vehicle. The ability of a test compound to inhibit this activity was determined as: Percentage inhibition=((cpm determined for sample with test compound present−cpm determined for sample with positive control inhibitor) divided by (cpm determined in the presence of vehicle−cpm determined for sample with positive control inhibitor))*100. […]

CC(=O)Nc1cc2c(-c3ccc(CN4CCN(S(C)(=O)=O)CC4)c(F)c3)cccn2n1 [Compound 1]
IC50 [1]: 0.00818 µM and 0.0115 µM and 0.00771 µM and 0.0352 µM and 0.00785 µM
Ki (TYK2): 0.11 µM
IC50 [2]: 0.271 µM and 0.299 µM and 0.213 µM and 0.428 µM
IC50 [3]: 0.0173 µM and 0.0113 µM and 0.00957 µM and 0.026 µM and 0.0182 µM
IC50 (JAK-STAT): 0.97 µM
IC50 [4]: 0.167 µM and 0.135 µM and 0.119 µM and 0.157 µM
